From patent publication US5026832A, “9-dihydro-9-O-alkyldesmycosin derivatives” (Toyo Jozo Co., Ltd., priority 1988, dated 1991) come the findings set out here.

Converted amounts (≈) assume the structure as drawn.

Experiment [1] relates to Staphylococcus pyogenes N.Y.5. Put plainly: Antimicrobial activity (minimum inhibitory concentration). The format is cell-based. To be noted: Staphylococcus pyogenes N.Y.5, about 10^6 /ml. How it is done: (§1) Minimum inhibitory concentrations (MIC, μg/ml) of various compounds of formula (I) against various microorganisms (about 10^6 /ml) were measured.
In experiment [2] the test system is Staphylococcus pyogenes 1022. Described as above. The format is cell-based. To be noted: Staphylococcus pyogenes 1022, about 10^6 /ml. On the procedure:
as §1

Experiment [3] deals with Staphylococcus pyogenes S-23. Described as above. The format is cell-based. The conditions noted are these: Staphylococcus aureus, S23; Staphylococcus pyogenes S-23, about 10^6 /ml. On the procedure: as §1
Experiment [4] concerns Staphylococcus aureus MS 353. The experiment is described as above. It is filed as cell-based. To be noted: MS353; Staphylococcus aureus MS 353, about 10^6 /ml. On the procedure:
as §1

Experiment [5] concerns Staphylococcus aureus Smith. Described as above. The format is cell-based. The conditions noted are these: about 10^6 /ml. On the procedure: as §1
For experiment [6], the system named is Staphylococcus epidermidis sp-al-1. The experiment is described as above. The format is cell-based. The conditions noted are these: SPAL1; Staphylococcus epidermidis sp-al-1, about 10^6 /ml. On the procedure:
as §1

Experiment [7] has as its system Staphylococcus aureus MS 353 C36. The experiment is described as above. The format is cell-based. The conditions noted are these: MS353C36; Staphylococcus aureus MS 353 C36, about 10^6 /ml. On the procedure: as §1
The test system of experiment [8] is Staphylococcus aureus FDA 209P JC-1. The description is as above. It is filed as cell-based. The conditions noted are these: FDA209P; Staphylococcus aureus FDA 209P JC-1, about 10^6 /ml. On the procedure:
as §1

Experiment [9] has as its system Staphylococcus pyogenes S-23. Put plainly: Infectious disease curing effect by oral administration in infected mice. To be noted: Staphylococcus aureus, S23, 120 h; oral, 1 hour after abdominal inoculation of Staphylococcus pyogenes S-23, inspected for 5 days, Van der Waerden method; read-out: ED50. It is filed as in vivo, ICR male mice. On the procedure:
A pre-incubated test microorganism, Staphylococcus pyogenes S-23, was suspended in a 5% mucin solution and inoculated into the ICR male mice (8 mice per group) abdomen in an amount of 2×10^2. After 1 hour, Compounds (I) of the present invention dissolved or suspended in a phosphate buffer were orally administered to the mice. The mice were inspected for 5 days to determine ED50 (mg/kg) by the Van der Waerden method.

Consider `CCC(=O)OC1CC(=O)OC(CC)C(COC2OC(C)C(O)C(OC)C2OC)C=C(C)C=CC(OC)C(C)CC(CC=O)C(OC2OC(C)C(O)C(N(C)C)C2O)C1C` (centres unmarked) [Compound 5, 9-dihydro-9-O-methyl-3-O-propionyldesmycosin], for which the MIC was determined as 0.05 µg/mL (≈ 0.0592 µM) in experiment [1]; 50 µg/mL (≈ 59.2 µM) in experiment [2]; 0.1 µg/mL (≈ 0.118 µM) in experiment [3]; 0.2 µg/mL (≈ 0.237 µM) in experiment [4]; 0.39 µg/mL (≈ 0.462 µM) in experiment [5]; 0.2 µg/mL (≈ 0.237 µM) in experiment [6]. The MIC was found to be 0.2 µg/mL (≈ 0.237 µM) in experiment [7] and 0.1 µg/mL (≈ 0.118 µM) in experiment [8]. The median effective dose (ED50) in [9] was 84 mg/kg.
With `CCC1OC(=O)CC(O)C(C)C(OC2OC(C)CC(N(C)C)C2O)C(CC=O)CC(C)C(OC)C=CC(C)=CC1COC1OC(C)C(O)C(OC)C1OC` (centres unmarked) [Compound 6, 9-dihydro-9-O-methyl-4'-deoxydesmycosin], the MIC is not above 0.05 µg/mL in experiment [1]; not above 0.05 µg/mL in experiment [3]; 0.2 µg/mL (≈ 0.259 µM) in experiment [4]; 0.39 µg/mL (≈ 0.505 µM) in experiment [5]; 0.1 µg/mL (≈ 0.13 µM) in [6]; 0.2 µg/mL (≈ 0.259 µM) in experiment [7]. This molecule returned an MIC in experiment [8] of 0.1 µg/mL (≈ 0.13 µM). Besides, the ED50 in experiment [9] was determined as 64.8 mg/kg.
For the molecule `CCC1OC(=O)CC(O)C(C)C(OC2OC(C)CC(N(C)C)C2O)C(CC=O)CC(C)C(OC)C=CC(C)=CC1CN(C)C` (centres unmarked) [Compound 7, 9-dihydro-9-O-methyl-23-demycinosyloxy-23-dimethylamino-4'-deoxydesmycosin], the minimum inhibitory concentration (MIC) in experiment [1] was 0.2 µg/mL (≈ 0.32 µM); in experiment [2], more than 100 µg/mL; in [3] it was 0.2 µg/mL (≈ 0.32 µM); in experiment [4], 0.2 µg/mL (≈ 0.32 µM); in experiment [5] it was 0.78 µg/mL (≈ 1.25 µM); in experiment [6], 0.2 µg/mL (≈ 0.32 µM). The MIC in experiment [7] and in experiment [8] was 0.2 µg/mL (≈ 0.32 µM) in each case. Further, in [9], the 50% effective dose (ED50) lay within 100 to 200 mg/kg.
Regarding `CCOC1C=CC(C)=CC(COC2OC(C)C(O)C(OC)C2OC)C(CC)OC(=O)CC(OC(C)=O)C(C)C(OC2OC(C)C(O)C(N(C)C)C2O)C(CC=O)CC1C` (centres unmarked) [Compound 8, 9-dihydro-9-O-ethyl-3-O-acetyldesmycosin], the MIC in experiment [1] was 0.1 µg/mL (≈ 0.118 µM); in experiment [2], more than 100 µg/mL; in [3], 0.1 µg/mL (≈ 0.118 µM); in [4], 0.39 µg/mL (≈ 0.462 µM); in experiment [5], 0.78 µg/mL (≈ 0.924 µM); in experiment [6] it was 0.39 µg/mL (≈ 0.462 µM). In addition, the MIC in [7] amounted to 0.39 µg/mL (≈ 0.462 µM); in experiment [8], 0.2 µg/mL (≈ 0.237 µM). Moreover, the ED50 in [9] is 50 mg/kg.
